Measured values published in PubChem BioAssay AID588764 (Broad Institute, 2011).
Records with an inconclusive call do not appear. Calls of active or inactive are those of the source. No rule for the calls is given here.

What follows are compounds tested against Histone acetyltransferase RTT109 (Candida albicans (strain SC5314 / ATCC MYA-2876)) (UniProt Q5AAJ8) (assay: C. albicans Rtt109 HAT inhibition curves – biochemical, cherry-picked hits, plate reader, dose response (AID 588764)). Conditions: Rtt109/Vps75 HAT activity.
Chain of Histone acetyltransferase RTT109 (Candida albicans (strain SC5314 / ATCC MYA-2876)) (Q5AAJ8 whole entry, looked up): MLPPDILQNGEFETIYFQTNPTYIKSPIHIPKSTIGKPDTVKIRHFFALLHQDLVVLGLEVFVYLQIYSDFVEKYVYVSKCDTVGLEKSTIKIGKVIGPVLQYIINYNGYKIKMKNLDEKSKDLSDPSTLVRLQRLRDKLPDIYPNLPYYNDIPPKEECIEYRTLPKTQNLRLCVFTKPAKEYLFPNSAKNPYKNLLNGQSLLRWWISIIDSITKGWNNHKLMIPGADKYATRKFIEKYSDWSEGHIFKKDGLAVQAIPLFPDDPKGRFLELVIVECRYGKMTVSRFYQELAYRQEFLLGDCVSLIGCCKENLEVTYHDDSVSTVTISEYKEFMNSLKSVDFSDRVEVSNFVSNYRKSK

Compound	AC50
Cc1cc(C)c2c(=O)n(CC(=O)Nc3cccc(Cl)c3C)sc2n1	1.98 µM
CC(=O)Nc1ccc(NC(=O)c2nc(S(=O)(=O)Cc3ccccc3)ncc2Cl)cc1	6.3 µM
Cc1ccc(NC(=O)c2cc(N3C(=O)C=CC3=O)ccc2N2CCOCC2)cc1	7.03 µM
CCCCS(=O)(=O)/C=C\C=C/S(=O)(=O)CCCC	7.19 µM
Cc1ccc2c(c1)C1C[N+](C)(CC(=O)c3ccc(Cl)cc3Cl)CCC1N2C(=O)c1ccc(F)cc1 (configuration not stated)	13.4 µM
COC(=O)c1cccc(-n2sc3ccccc3c2=O)c1	4.38 µM
CCCC1(c2ccccc2)NC(=O)N(CC(=O)N(C)Cc2c(F)cccc2Cl)C1=O (configuration not stated)	2.79 µM
CN(C)C(=S)SSC(=S)N(C)C	3.4 µM
Cc1ccc(NC(=O)Cn2sc3nc(C)cc(C)c3c2=O)c(Cl)c1	0.831 µM
CCOC(=O)/C=C/S(=O)(=O)c1ccc(NC(C)=O)cc1	5.88 µM
COc1ccc(OC)c2sc(N(CCCN(C)C)C(=O)CCS(=O)(=O)c3ccccc3)nc12	20.1 µM
CC1(C)CC2(CC(c3ccccc3F)c3ccc(O)c(O)c3O2)NC(=S)N1 (configuration not stated)	19.7 µM
CC1=C(C)/C(=N\OS(=O)(=O)c2ccc(C)cc2)C=CC1=O	8.6 µM
O=C(Nc1ccccc1Cl)/C(Cl)=C(\Cl)S(=O)c1ccccc1 (configuration not stated)	8.62 µM
CN1CCc2cccc3c2[C@H]1Cc1ccc(O)c(O)c1-3	18.4 µM
CCn1c(C)c(CS(=O)(=O)c2ccccc2)[nH]c1=O	11.3 µM
CCOC(=O)N1CCN(Cc2c(O)ccc3ccccc23)CC1	18.8 µM
CCN(CC)C(=S)SSC(=S)N(CC)CC	3.26 µM

Same assay, conditions: Rtt109/Vps75 HAT activity, at 19.5 µM (top of the series)

Compound	activity change, negative = inhibition
O=C(CSC1=NCCN1)Nc1cccc([N+](=O)[O-])c1	inactive
CCOC(=O)c1ccc(N=C2C(=S)N(c3ccc(C(=O)OCC)cc3)C(=N)N2/N=C/c2ccccc2)cc1	inactive
C[C@H](NC(=O)c1ccco1)C(=O)Nc1ccc(S(=O)(=O)N2CCCC2)cc1	inactive
Clc1nc(NCc2cccnc2)nc(N2CCOCC2)n1	inactive
COCC(=O)OCC(=O)Nc1cc(C)c(C)cc1[N+](=O)[O-]	inactive
COc1ccccc1C(=O)CSc1nccn1C	inactive
Cc1[nH]n(-c2ccccc2)c(=O)c1C=NC1CCCCC1	inactive
CCCCCCCCCCn1c2c(c(=N)c3c1CCC3)CCC2	inactive
CCCCS(=O)(=O)c1sc2nc(C)cc(C)c2c1N	inactive
O=C1Nc2cc(C(=O)NCCCN3CCCC3)ccc2S/C1=C\c1ccccc1	inactive
COc1ccc(-n2nc3c(c2NC(=O)c2ccc(N4C(=O)CCC4=O)cc2)CSC3)cc1	inactive
CC1Cc2ccccc2N1C(=O)COC(=O)c1ccc(O)cc1 (configuration not stated)	inactive
CCN(CC)CCCNc1nc2cc(OC)c(OC)cc2c2nc(-c3cccnc3)nn12	inactive
Cc1cc(NC(=O)CCCn2nc([N+](=O)[O-])c(Cl)c2C)no1	inactive
CC[n+]1c(C)sc2c(C)cc(C)cc21	inactive
Cc1c(C(=O)N2CCC[C@H]2CO)oc2c(F)cccc12	inactive
O=C(Nc1ccc2oc(-c3ccncc3)nc2c1)c1ccc2c(c1)OCCO2	inactive
CCc1sc(C(=O)Nc2cccc(C(C)=O)c2)cc1C	inactive
CCOC(=O)c1c(C)oc2c(CC(=O)c3ccccc3)c(Cl)c(O)c(O)c12	inactive
COc1ccccc1C(=O)Nc1ccc(OCC(=O)N2CC(C)CC(C)C2)cc1 (configuration not stated)	inactive
COc1cccc(NC(=O)CSc2nc3c(sc4ccccc43)c(=O)n2CCN(C)C)c1	inactive
CC(C)OC(=O)N(C)c1ccc(C(O)(C(F)(F)F)C(F)(F)F)cc1	inactive
Cc1ccc(NC(=S)Nc2ccc(F)cc2)cc1C	inactive
COc1cccc(OC)c1C(=O)Nc1cccc(-c2ccc(N3CCOCC3)nn2)c1	inactive
O=C(O)COc1ccccc1O	inactive

Compound	activity change, negative = inhibition
CCc1nnc(NC(=O)CSc2nnc(C3CCCCC3)n2-c2cccc(Cl)c2)s1	inactive
O=C(NCc1ccc(Cl)cc1)c1ccccc1CCc1ccccc1	inactive
COc1cc(NC(=O)COc2c(C)cc(C)cc2[N+](=O)[O-])c(OC)cc1Cl	inactive
COc1ccc(/C=N/NC(=O)COc2ccc(Cl)cc2Cl)cc1Cn1nc(C)cc1C	inactive
CCOC(=O)c1c(CNCCN(CC)CC)n(C)c2cc(Br)c(OC)cc12	inactive
Cc1cc(CN2C(=O)c3ccccc3C2=O)no1	inactive
CC(C(=O)Nc1ccc(O)c(C(=O)O)c1)N1C(=O)/C(=C/c2cccs2)SC1=S (configuration not stated)	inactive
CN(C)S(=O)(=O)n1cc(/C=C(\NC(=O)c2ccccc2)C(=O)N2CCCC2)c2ccccc21	inactive
CC(=O)N(c1ccc2oc(=O)sc2c1)S(=O)(=O)c1cccc2cccnc12	inactive
CC(C)c1ccc(NC(=O)NC(C)c2ccc3c(c2)OCO3)cc1 (configuration not stated)	inactive
O=c1[nH]c2ccccc2c2oc(CCl)nc12	inactive
CCOC(=O)c1c(CSC(=N)N)n(C)c2cc(Br)c(OC(C)=O)cc12	inactive
COc1ccc2nc(NC(=O)CN3C(=O)NC4(CCCCC4)C3=O)sc2c1	inactive
O=C(CCc1nnc(C2(c3ccc(Cl)cc3)CCC2)o1)NCCCn1cccn1	inactive
COc1cccc(C(=O)NCc2nnc(SCC(=O)Nc3nccs3)n2-c2cccc(C)c2)c1	inactive
CCOC(=O)C(C)N1C(=O)S/C(=C/c2ccc3c(c2)n(C)c(=O)n3C)C1=O (configuration not stated)	inactive
O=C(/C=C/Nc1ccc([N+](=O)[O-])cc1Br)c1cccc2ccccc12	inactive
Cc1ccccc1N1C(S)=C(C#N)C(=O)NC12CCCCC2	inactive
Cc1cc(OCc2ccc(C(=O)NN=C3CCCC3)cc2)ccc1Cl	inactive
COc1ccc(-n2cnc3scc(-c4ccc(OC)c(OC)c4)c3c2=O)cc1	inactive
NCC12CC3CC(C1)CC(c1ccc(Cl)cc1)(C3)C2	inactive
N#C/C(=C\c1ccncc1)c1nc2c(s1)CCCC2	inactive
Cc1ccc(S(=O)(=O)c2nc(-c3ccccc3)oc2N2CCC(C(N)=O)CC2)cc1	inactive
Cc1nonc1OCCn1c([N+](=O)[O-])cnc1C	inactive
C#CCOCCOCCOCCNc1nc(N2CCN(C(=O)[C@H](CCCN=C(N)N)n3cc(C(N)[C@@H](C)CC)nn3)CC2)nc(N2CCN(C(=O)[C@H](CCCCN)n3cc([C@@H](N)[C@H](C)CC)nn3)CC2)n1 (some centres not stated)	inactive

Compound	activity change, negative = inhibition
O=C(CNC(=O)c1ccc(Br)o1)NC12CC3CC(CC(C3)C1)C2	inactive
Cc1nc(CC(C)C)cc(C(=O)N2CCCC(CNS(=O)(=O)c3cccs3)C2)n1 (configuration not stated)	inactive
C#CCOCCOCCOCCNc1nc(N2CCN(C(=O)[C@H](CCCN=C(N)N)n3cc(C(N)[C@@H](C)CC)nn3)CC2)nc(N2CCN(C(=O)[C@H](CCCCN)n3cc([C@@H](N)CC(N)=O)nn3)CC2)n1 (some centres not stated)	inactive
COCCNS(=O)(=O)c1ccc2c(c1)C(=NO)c1cc(S(=O)(=O)NCCOC)ccc1-2	inactive
COc1ccccc1-n1cnnc1SCC(=O)NC1CCCC1	inactive
CN(C(=O)CCc1nc(-c2ccccc2F)no1)c1ccccc1	inactive
CS(=O)(=O)C1=NN2C(=N)/C(=C\c3ccc(OC(=O)c4ccco4)cc3)C(=O)N=C2S1	inactive
O=C(NCCCN1CCN(c2ccccc2F)CC1)C1CCC(=O)N1C1CCCCC1 (configuration not stated)	inactive
Cc1cc(Cl)c(S(=O)(=O)N2CCCC2)cc1OCC(N)=O	inactive
CN(c1ccc(C(=O)Nc2ccc3c(c2)OCO3)cc1)S(C)(=O)=O	inactive
O=S(=O)(c1ccc(Cl)cc1)N1CCN(c2ncccn2)CC1	inactive
Cc1cccc(-n2c(O)c(/C=N/NC(=O)c3ccccc3Cl)c3ccccc3c2=O)n1	inactive
Cc1ccc2sc(NNC(=O)C3=COCCO3)nc2c1C	inactive
CCn1c(SCC(=O)Nc2cc(OC)c(OC)c(OC)c2)nnc1-c1cccs1	inactive
COC(=O)c1cc2c(ccn2-c2ccc(F)cc2)n1CC(=O)C(C)(C)C	inactive
Cc1ccccc1Nc1nnc(SCC2CCCCO2)s1 (configuration not stated)	inactive
CC1CCC2(CC1)NC(=S)N(c1ccccc1)N2 (configuration not stated)	inactive
COc1ccc(NC(=O)CSc2nnc(-c3ccccc3)n2N)cc1	inactive
CCOc1ccc(N2C(=O)CSC2c2ccncc2)cc1 (configuration not stated)	inactive
CCOC(=O)C1=C(C)N=c2s/c(=C/c3ccc(OCC(=O)O)cc3)c(=O)n2C1c1cc(OC)c(OC)c(OC)c1 (configuration not stated)	inactive
CCC(C)NC(=O)C1CCN(S(=O)(=O)c2cc([N+](=O)[O-])ccc2Cl)CC1 (configuration not stated)	inactive
CC(C(=O)NC1C=CS(=O)(=O)C1)N1C(=O)/C(=C/c2ccc(Cl)cc2)SC1=S (configuration not stated)	inactive
Cc1cccc2sc(N(CCCN(C)C)C(=O)CCc3ccccc3)nc12	inactive
CCc1cccc(NC(=O)C2CCCN(c3ncnc4c3nc3n4CCCCC3)C2)c1 (configuration not stated)	inactive
